Experimental data: patent US7094760B2, “Peptides for treatment of inflammation and shock” (Salpep Biotechnology, Inc., priority 1996, dated 2006)

Experiments:
[1] = tested on: LPS (Salmonella typhosa)-induced hypotension in unoperated rats; assay: endotoxin (LPS)-induced hypotension, unoperated rats; assay type: in vivo, rat
Procedure: The animal model of endotoxic shock used involves intravenous injection of endotoxin (3.5 mg/kg of lipopolysaccharide (LPS) from Salmonella typhosa) into pentobarbital-anaesthetized Sprague-Dawley rats, to produce a fall in mean arterial blood pressure within 3 to 5 minutes. The endotoxin was injected slowly over 1 min. via the jugular vein, and mean arterial blood pressure in mm mercury (MABP) was monitored continuously for 60 min, with the average blood pressure being calculated at 15, 30, 45 and 60 min. Studies were performed on unoperated rats and rats with their submandibular glands removed (sialadenectomized).
The results shown in Table 1 are the averages of three different experiments using the protocol defined above. The data shown represent the average decrease in MABP (dec MABP) and the % Decrease in MABP over the 60 minutes following LPS administration. SGP-S (100μg/kg) and SGP-T (100 μg/kg) were administered 90 min. before LPS. […] Neither SGP-T nor SGP-S, when given prior to the LPS challenge, had appreciable effects on MABP.
Overall, SGP-T reduced by 60% the decrease and the percent decrease in MABP induced by endotoxin, relative to pre-LPS values. SGP-S, on the other hand, had no effect on the shock induced by endotoxin in unoperated rats.
The dose-response relationship of the inhibitory effect of SGP-T and SGP-S on endotoxin-induced hypotension was also examined and the results are shown in FIG. 1.

[2] = tested on: Sprague-Dawley rats sensitized with Nippostrongylys brasiliensis; assay: antigen-induced anaphylactic hypotension, Nippostrongylus brasiliensis-sensitized rats; assay type: in vivo, rat; details: given 10 minutes prior to worm antigen (100 worm equivalents)
Procedure: The effect of SGP-T on antigen-induced anaphylactic hypotension was examined in Sprague-Dawley rats sensitized 5 weeks previously with the nematode parasite Nippostrongylys brasiliensis. Under pentobarbital anesthesia, worm antigen (100 worm equivalents) was injected and arterial blood pressure was followed for 1 hour.

[3] = tested on: isolated jejunal segments from egg albumin-sensitised rats; assay: antigen-induced contraction of isolated jejunal segments, Examples 3 and 6; design: species or system rat
Procedure: SGP-T, at doses as low as 6.8×10^−7M, reduced antigen induced contractions of these isolated intestinal tissues by 60% (data not shown).
Analogues and fragments of SGP-T were tested for their ability to inhibit antigen (egg albumin)-induced intestinal contractions, using isolated jejunal segments from egg albumin-sensitised rats, as described in Example 3.

[4] = tested on: neutrophils from carrageenin-soaked sponges; assay: superoxide production by neutrophils from carrageenin-soaked sponges of treated rats; assay type: in vivo, rat; details: intravenous SGP-T 4 hr. before implantation of the sponge
Procedure: Under halothane anaesthesia the sponge was removed from its subcutaneous site and the fluid was squeezed from it into a test tube. Following centrifugation at 2,000 g for 10 min, the exudate was decanted and the remaining cells were suspended in 4 ml of 0.9% saline, and their number determined using a Coulter Counter. One ml of the remaining cell suspension was extracted for use in the superoxide assay.
Neutrophils (10^6) were suspended in PBS buffer of the following composition: NaCl 137 mM, KCl 2.7 mM, Na2HPO4, 8.1 mM, KH2PO4 1.47 mM, CaCl2 1.19 mM, MgCl2 0.54 mM, glucose 7.5 mM and cytochrome C 1.5 mM (Sigma Chemical Co. St. Louis, […].) incubated at 37 C. Each sample was read along with a reference sample containing 1440 units of superoxide dismutase (Sigma) in a spectrophotometer (Hitachi, U200 spectrophotometer). The rate of superoxide production in response to 10^−7M phorbol myristate acetate (PMA) or 10^−5 M N-formyl-methionyl-leucyl-phenylalanine (fMLP) was then inferred from the slope. […]
Intravenous injections of SGP-T inhibited neutrophil influx into a carrageenin-soaked sponge in a dose-dependent manner (FIG. 4). When the ability of neutrophils obtained from the carrageenin-soaked sponges to generate superoxide anion was evaluated, those obtained from saline-treated rats were totally refractory to f MLP and phorbol myristate acetate (PMA).

[5] = tested on: ovalbumin-sensitized Sprague-Dawley rats; assay: anaphylactic hypotension (VPSP), ovalbumin-sensitized rats, Example 8; assay type: in vivo, rat; details: intravenous, 100 μg/kg, 10 min prior to antigen
Procedure: Animals and Tissue Preparation: Male Sprague-Dawley rats were sensitized to egg albumin (ovalbumin; OA) with 50 ng of Pertussin bortella toxin as an adjuvant. Four to six weeks after sensitization, the rats were anesthetized with sodium pentobarbital. A tracheal tube was inserted and a cannula was inserted into the left ventricle for measuring ventricular peak systolic pressure (VPSP). This cannula was coupled to a blood pressure transducer. A cannula was also inserted into the jugular view for administration of peptide (100 μg/kg) and antigen (100 μg of OA). The peptides were injected intravenously 10 min prior to antigen injection and blood pressure was recorded for 30 min.
In a second study, the peptide feG (D-phenylalanine, D-glutamate, glycine) was administered orally by a stomach tube 1 hour prior to intravenous injection of the sensitizing antigen.
Data Analysis: The percent changes in VSPS induced by anaphyalctic reaction were calculated relative to baseline VPSP. Significance differences within groups were determined with one-way analysis of variance (ANOVA), and between groups with the Student t-test.

[6] = tested on: ovalbumin-sensitized Hooded-Listar rats; assay: anaphylactic perturbation of intestinal motility, Example 9; assay type: in vivo, rat; details: intravenously at 100 μg/kg, 20 min before challenge
Procedure: Animals and Tissue Preparation: Male Hooded-Listar rats were sensitized to egg albumin (ovalbumin; OA). Two weeks after sensitization, the animals had electrodes implanted into the muscle of the jejunum for recording muscle electrical activity. One week later, the fasted rats received SGP-T or an analogue, either intravenously (injection via penile vein under halothane anaesthesia) or orally (via gastric tube), 20 min before challenge with OA, or bovine serum albumin as control, by intragastric administration.
The disruption of intestinal migrating myoelectric complexes (MMCs) (Scott et al., (1988), J. Physiol., v. 255, pp. G505–511), a measure of intestinal activity, and the presence of diarrhea were used as biological measurements of anaphylaxis.

[7] = peptide 100 μg/kg 90 min before LPS 3.5 mg/kg iv

NH2-Thr-Asp-Ile-Phe-Glu-Gly-Gly-COOH (H-TDIFEGG-OH) [SGP-T, submandibular gland peptide T, TDIFEGG]
effect on drop in MABP / shock induced by endotoxin [1]: reduced the drop in MABP | optimal dose for reducing LPS-induced hypotension [1]: higher than in operated animals | % Dec = percent decrease in MABP relative to MABPbef [1, 7]: −11.6% | MABPaft = average MABP for 60 mins after LPS injection [1, 7]: 99.6 ± 3.8 mm Hg | dec MABP = decrease in MABP after LPS relative to MABPbef [1, 7]: −13.6 ± 2.9 mm Hg | reduction of the decrease and the percent decrease in MABP induced by endotoxin ([1]; relative to pre-LPS values): 60% | protection against anaphylactic hypotension [2]: dose-dependently protected | Biological Activity = inhibition of antigen-induced jejunal contraction by test peptide [3]: +++ (+++ = highest inhibition (~60%)) | reduction of antigen induced contractions of isolated intestinal tissues ([3]; doses as low as 6.8×10^−7M): 60% | superoxide generation in response to fMLP and PMA by sponge neutrophils [4]: able to generate substantial amounts of superoxide | anaphylactic hypotension (VPSP) [5]: significantly inhibited | intestinal anaphylaxis induced by OA [6]: prevented or reduced
